Data from BindingDB's records for patent US10519177 (Plexxikon Inc., 2019).

What follows are compounds tested against T1, Bromodomain-containing protein 4 [1-477] (Human, UniProt O60885).
T1 construct: 1-477

IC50, < 1 µM:
Cc1noc(C)c1-c1cnc2c(-c3ccc(C(=O)O)cc3)cn(CC3CC4(CCC4)C3)c2c1 [US10519177, Compound P-0603]
Cc1noc(C)c1-c1cnc2c(I)cn(Cc3ccccc3C#N)c2c1 [US10519177, Compound P-0921]
COC(=O)c1ccc(-c2c[nH]c3cc(-c4c(C)noc4C)cnc23)cc1 [US10519177, Compound P-1033]
